Like-named read-outs stand apart in the source and are kept apart here.
Legend:
HL-60 cells [1] = assay: MTT in vitro cytotoxicity assay, HL-60; format: cell-based; conditions: 48 h incubation, mean ± SEM, read-out: IC50 HL-60
Description: (§1) The promyelocytic leukemia HL-60 and breast cancer adenocarcinoma MCF-7 cell lines were purchased from the European Collection of Cell Cultures (ECACC). Leukemia cells were cultured in RPMI 1640 plus GlutaMax I medium (Gibco/Life Technologies, Carlsbad, CA, USA). MCF-7 cells were maintained in Minimum Essential Medium Eagle (Sigma Aldrich, St. Louis, MO, USA) and supplemented with 2 mM glutamine and men non-essential amino acid solution (Sigma Aldrich, St. Louis, MO, USA). Both media were supplemented with 10% heat-inactivated fetal bovine serum (Biological Industries, Beit-Haemek, Israel) and antibiotics (100 U/mL penicillin and 100 μg/mL streptomycin) (Sigma-Aldrich, St. Louis, MO, USA). Human umbilical vein endothelial cells (HUVECs) were purchased from the American Type Culture Collection (ATCC). Cells were cultured using EGM-2 Endothelial Medium BulletKit purchased from Lonza (Lonza, Walkersville, MD, USA). Cells were maintained at 37 °C in 5% CO2 atmosphere and grown until 80% confluent.
(§2) The tested compounds were dissolved in sterile dimethyl sulfoxide (DMSO) and further diluted with culture medium. The final concentration of DMSO in cell cultures was less than 0.1% v/v. Controls without and with 0.1% DMSO were performed in each experiment. At the used concentration, DMSO had no effect on the observed parameters.
(§3) The MTT (3-(4,5-dimethylthiazol-2-yl)-2,5-diphenyltetrazolium bromide) assay, which measures the activity of cellular dehydrogenases, was performed according to the Mosmann method. Exponentially growing cells were seeded into 24-well plates at a density of 8 × 10^4 cells/mL and left to grow for 24 h. After 24 h or 48 h of incubation with various concentrations of the tested compounds (dissolved in DMSO and diluted with complete culture medium), cells were incubated with 0.1 mL of MTT solution (5 mg/mL in phosphate buffered saline) for 1.5 h. The metabolically active cells reduced MTT to blue formazan crystals. The plates were centrifuged, and the supernatant was discarded. DMSO (1 mL) was added to each well to dissolve the crystals, whose absorbance was measured at 560 nm using FlexStation 3 Multi-Mode Microplate Reader (Molecular Devices, LLC, San Jose, CA, USA). The untreated cells were used as control. The IC50 values were calculated from the concentration–response curves. The data were expressed as mean ± SEM of three independent experiments.

MCF-7 cells = assay: MTT in vitro cytotoxicity assay, MCF-7; format: cell-based; conditions: mean ± SEM
Description: as §1, §2, §3

HUVEC cells = assay: MTT in vitro cytotoxicity assay, HUVEC (normal cells); format: cell-based, human; conditions: 48 h incubation, mean ± SEM
Description: as §1, §2, §3

HL-60 cells [2] = assay: Apoptosis by cleaved PARP (Asp214) staining, flow cytometry; format: cell-based; conditions: 24 h, control 1.4%
Description: To evaluate the anticancer potential of 5a, the ability of this compound to inhibit cell proliferation, induce apoptotic cell death, and generate DNA damage was examined by flow cytometry using the ‘Apoptosis, DNA Damage, and Cell Proliferation Kit’ (BD Bioscience). After 24 h treatment with 5a in increasing concentrations, HL-60 cells were exposed to bromodeoxyuridine (BrdU) for additional 8 h. Then, the cells were simultaneously stained with fluorochrome-labeled anti-BrdU, anti-cleaved PARP (Asp214) and anti-H2AX (pS139).
To check whether the cytotoxic effect of 5a was associated with the induction of apoptosis, the pro-apoptotic activity of this compound was investigated. Apoptosis regulation is triggered by the activation of caspases. Caspase-3, an effector caspase, cleaves a number of vital proteins, leading to cell death. The activity of caspase-3 was assessed by flow cytometry using fluorochrome-labeled antibodies recognizing 89 kDa-cleaved PARP fragments released from PARP by caspase-3 in the executive stage of apoptosis.
Cell proliferation, DNA damage, and apoptotic cell death were determined using Apoptosis, DNA Damage, and Cell Proliferation Kit (BD Bioscience, San Jose, CA, USA), according to the manufacturer protocol. Briefly, HL-60 cells were seeded in 6-well plates (4.0 × 10^5 cells/mL) in 2 mL of growth medium and treated with 5a for 24 h. Afterwards, the bromodeoxyuridine (BrdU, 10 µM) was added and the cells were incubated for additional 8 h. Next, the cells were collected by centrifugation (300× g, 5 min), counted, fixed, and permeabilized according to the manufacturer’s instructions. The cells were incubated with DNase (300 µg/mL in PBS) for 1 h at 37 °C and then simultaneously stained with fluorochrome-labeled anti-BrdU, H2AX (pS139), and cleaved PARP (Asp214) antibodies, for 20 min at room temperature. After washing, DNA staining with DAPI (1 µg/mL of the staining buffer) was performed, and the cells were analyzed by flow cytometry using CytoFLEX (Beckman Coulter, Inc., Brea, CA, USA).

[3] = Homo sapiens, MCF7, 48 h incubation

melting point [°C]	SMILES	IC50 (HL-60 cells [1]) [µM]	IC50 (MCF-7 cells; 48 h incubation) [µM]	IC50 (HUVEC cells) [µM]	IC50 (HL-60 cells [1]; Homo sapiens, HL-60, 48 h) [µM]	IC50 (MCF-7 cells; [3]) [µM]	IC50 (HUVEC cells; Homo sapiens, HUVEC) [µM]	apoptotic cells (cleaved PARP positive) population (HL-60 cells [2]; 1.35 µM) [%]	apoptotic cells (cleaved PARP positive) population (HL-60 cells [2]; 1.8 µM) [%]
–	N.N.O=C([O-])C1(C(=O)[O-])CCC1.[Pt+2] [Carboplatin, reference compound]	3.8 ± 0.45	2.9 ± 0.1	5.35 ± 0.05	–	–	–	–	–
86	C=C1C(=O)c2ccccc2N(S(=O)(=O)c2ccccc2)C1C(C)C (stereo not shown) [Compound 5b, 3-Methylidene-1-(phenylsulfonyl)-2-(propan-2-yl)-2,3-dihydroquinolin-4(1H)-one]	0.29 ± 0.02	–	–	< 0.3	0.83 ± 0.02	0.78 ± 0.21	–	–
150	C=C1C(=O)c2ccccc2N(S(=O)(=O)c2ccccc2)C1c1ccccc1 (stereo not shown) [Compound 5c, 3-Methylidene-2-phenyl-1-(phenylsulfonyl)-2,3-dihydroquinolin-4(1H)-one]	–	–	–	1.36 ± 0.13	2.25 ± 0.2	–	–	–
152	C=C1C(=O)c2ccccc2N(S(=O)(=O)c2ccccc2)C1c1ccc(OC)cc1 (stereo not shown) [Compound 5d, 2-(4-Methoxyphenyl)-3-methylidene-1-(phenylsulfonyl)-2,3-dihydroquinolin-4(1H)-one]	–	–	–	1.12 ± 0.37	1.21 ± 0.24	–	–	–
118	C=C1C(=O)c2ccccc2N(S(=O)(=O)c2ccc(Cl)cc2)C1CC (stereo not shown) [Compound 5e, 1-((4-Chlorophenyl)sulfonyl)-2-ethyl-3-methylidene-2,3-dihydroquinolin-4(1H)-one]	–	–	–	0.37 ± 0.05	1.61 ± 0.07	0.75	–	–
126	C=C1C(=O)c2ccccc2N(S(=O)(=O)c2ccc(Cl)cc2)C1C(C)C (stereo not shown) [Compound 5f, 1-((4-Chlorophenyl)sulfonyl)-3-methylidene-2-(propan-2-yl)-2,3-dihydroquinolin-4(1H)-one]	0.23 ± 0.01	–	–	< 0.3	0.86 ± 0.02	0.99 ± 0.07	–	–
178	C=C1C(=O)c2ccccc2N(S(=O)(=O)c2ccc(Cl)cc2)C1c1ccccc1 (stereo not shown) [Compound 5g]	–	–	–	0.78 ± 0.07	1.89 ± 0.03	–	–	–
140	C=C1C(=O)c2ccccc2N(S(=O)(=O)c2ccc(Cl)cc2)C1c1ccc(OC)cc1 (stereo not shown) [Compound 5h, 1-((4-Chlorophenyl)sulfonyl)-2-(4-methoxyphenyl)-3-methylidene-2,3-dihydroquinolin-4(1H)-one]	–	–	–	0.92 ± 0.01	2.1 ± 0.16	–	–	–
168	C=C1C(=O)c2cc(OC)c(OC)cc2N(S(=O)(=O)c2ccc(C)cc2)C1CC (stereo not shown) [Compound 5i, 2-Ethyl-6,7-dimethoxy-3-methylidene-1-tosyl-2,3-dihydroquinolin-4(1H)-one]	–	–	–	0.37 ± 0.02	1.01 ± 0.05	0.42 ± 0.08	–	–
150	C=C1C(=O)c2cc(OC)c(OC)cc2N(S(=O)(=O)c2ccc(C)cc2)C1C(C)C (stereo not shown) [Compound 5j, 6,7-Dimethoxy-3-methylidene-2-(propan-2-yl)-1-tosyl-2,3-dihydroquinolin-4(1H)-one]	–	–	–	0.43 ± 0.02	1.44 ± 0.07	0.99 ± 0.07	–	–
196	C=C1C(=O)c2cc(OC)c(OC)cc2N(S(=O)(=O)c2ccc(C)cc2)C1c1ccccc1 (stereo not shown) [Compound 5k, 6,7-Dimethoxy-3-methylidene-2-phenyl-1-tosyl-2,3-dihydroquinolin-4(1H)-one]	–	–	–	0.58 ± 0.02	1.46 ± 0.09	–	–	–
196	C=C1C(=O)c2cc(OC)c(OC)cc2N(S(=O)(=O)c2ccc(C)cc2)C1c1ccc(OC)cc1 (stereo not shown) [Compound 5l, 6,7-Dimethoxy-2-(4-methoxyphenyl)-3-methylidene-1-tosyl-2,3-dihydroquinolin-4(1H)-one]	–	–	–	1.48 ± 0.06	1.15 ± 0.04	–	–	–
126	C=C1C(=O)c2cc(Cl)ccc2N(S(=O)(=O)c2ccc(C)cc2)C1CC (stereo not shown) [Compound 5m, 6-Chloro-2-ethyl-3-methylidene-1-tosyl-2,3-dihydroquinolin-4(1H)-one]	–	–	–	1.75 ± 0.03	3.48 ± 0.42	–	–	–
130	C=C1C(=O)c2cc(Cl)ccc2N(S(=O)(=O)c2ccc(C)cc2)C1C(C)C (stereo not shown) [Compound 5n, 6-Chloro-3-methylidene-2-(propan-2-yl)-1-tosyl-2,3-dihydroquinolin-4(1H)-one]	–	–	–	0.67 ± 0.01	1.65 ± 0.05	0.68 ± 0.03	–	–
162	C=C1C(=O)c2cc(Cl)ccc2N(S(=O)(=O)c2ccc(C)cc2)C1c1ccccc1 (stereo not shown) [Compound 5o, 6-Chloro-3-methylidene-2-phenyl-1-tosyl-2,3-dihydroquinolin-4(1H)-one]	–	–	–	2.04 ± 0.05	3.67 ± 0.41	–	–	–
150	C=C1C(=O)c2cc(Cl)ccc2N(S(=O)(=O)c2ccc(C)cc2)C1c1ccc(OC)cc1 (stereo not shown) [Compound 5p, 6-Chloro-2-(4-methoxyphenyl)-3-methylidene-1-tosyl-2,3-dihydroquinolin-4(1H)-one]	–	–	–	2.07 ± 0.02	3.6 ± 0.19	–	–	–
132	C=C1C(=O)c2cc(Br)ccc2N(S(=O)(=O)c2ccc(C)cc2)C1CC (stereo not shown) [Compound 5q, 6. -Bromo-2-ethyl-3-methylidene-1-tosyl-2,3-dihydroquinolin-4(1H)-one]	–	–	–	0.61 ± 0.04	1.83 ± 0.15	1 ± 0.22	–	–
118	C=C1C(=O)c2cc(Br)ccc2N(S(=O)(=O)c2ccc(C)cc2)C1C(C)C (stereo not shown) [Compound 5r, 6-Bromo-3-methylidene-2-(propan-2-yl)-1-tosyl-2,3-dihydroquinolin-4(1H)-one]	0.19 ± 0.03	–	–	< 0.3	0.83 ± 0.02	0.47 ± 0.03	–	–
162	C=C1C(=O)c2cc(Br)ccc2N(S(=O)(=O)c2ccc(C)cc2)C1c1ccccc1 (stereo not shown) [Compound 5s, 6-Bromo-3-methylidene-2-phenyl-1-tosyl-2,3-dihydroquinolin-4(1H)-one]	–	–	–	0.62 ± 0.01	2.67 ± 0.05	–	–	–
168	C=C1C(=O)c2cc(Br)ccc2N(S(=O)(=O)c2ccc(C)cc2)C1c1ccc(OC)cc1 (stereo not shown) [Compound 5t, 6-Bromo-2-(4-methoxyphenyl)-3-methylidene-1-tosyl-2,3-dihydroquinolin-4(1H)-one]	–	–	–	0.74 ± 0.06	2.81 ± 0.05	–	–	–
–	CCOP(=O)(OCC)C1=C(O)c2ccccc2N(S(=O)(=O)c2ccccc2)C1CC (stereo not shown) [Compound 10a]	–	–	–	–	–	–	20.6	26.4

From publication PMC9181899, “Synthesis and Anticancer Properties of New 3-Methylidene-1-sulfonyl-2,3-dihydroquinolin-4(1H)-ones” (Molecules, 2022)
